In patent US12606802B2, “Methods and compositions for improving the assembly of adeno-associated viruses (AAVs)” (priority 2019, dated 2026):
Entries after “also recorded” stand apart in the source; their conditions may differ.

Key:
[1] = system: HEK293 cells; experiment: General transfection efficiency by imaging EGFP positive cells; format: cell-based; conditions: for transfection efficiency / EGFP expression: inhibitor 4 h post transfection
[2] = system: AAV; conditions: cited from earlier work
[3] = system: AAV2 and AAV8 vector; experiment: Vector production in HEK293 cells with chemical inhibitors, DRP by qPCR, serotype not separated; format: cell-based, adeno-associated virus
Protocol: (§1) Inhibitor-containing media was added to wells and transfection mixtures containing either AAV2 (light bars) or AAV8 (dark bars) production plasmids were added dropwise on top, and vector harvested 48 h later (FIG. 8A). […] To examine whether any of these were not directly inhibiting capsid assembly but rather a result of poor transfection efficiency, an upstream but important factor for vector production, the experiment was repeated adding inhibitors 4 h after transfection mixture was added to allow transfection steps to initiate (FIG. 8B).

[4] = system: VP proteins; conditions: cited from earlier work
[5] = system: PEI-mediated transfection of plasmid DNA; conditions: cited from earlier work
[6] = system: HEK293 cells; experiment: Cell viability by ATP levels (Cell Titer Glo); format: cell-based; conditions: 48 h
[7] = system: AAV8; experiment: AAV8 vector production in HEK293 cells with chemical inhibitors, DRP by qPCR; format: cell-based, adeno-associated virus
Protocol: as §1

[8] = system: AAV2; experiment: AAV2 vector production in HEK293 cells with chemical inhibitors, DRP by qPCR; format: cell-based, adeno-associated virus
Protocol: as §1

[9] = system: HEK293 cells; conditions: 270 uM; 48 h
Protocol: General transfection efficiency was assessed visually by imaging EGFP positive cells (EGFP is present in the ITR-flanked transgene plasmid), and cell health was assessed visually by brightfield imaging and quantitatively by ATP levels in drug treated wells (light shading, FIG. 8B).
In these experiments, production plasmids were transfected into HEK293 cells and the appropriate inhibitor was serial diluted and added 4 h later at the concentrations indicated along the x-axis. The inhibitor was added at the same concentrations to a parallel plate and ATP levels were quantified by Cell Titer Glo® to assess cell viability after 48 h of incubation. General transfection efficiency (EGFP; present on ITR-flanked transgene plasmid) and cell morphology (Brightfield), at concentrations listed along the x-axis, were assessed by microscopy at 48 h, immediately before vector harvest from the same well.

[10] = inhibitor added immediately before transfection, harvest 48 h
[11] = inhibitor added 4 h after transfection, harvest 48 h
[12] = 6.25 μM, inhibitor added 4 h after transfection
[13] = higher concentrations, particularly 90-270 uM, 4 h post transfection

Question: What does the source list for `CO/C1=C\C(C)=C\[C@@H](C)[C@@H](O)[C@@H](C)C/C(C)=C/C=C/[C@H](OC)[C@@H]([C@@H](C)[C@@H](O)[C@H](C)[C@@]2(O)C[C@@H](O)[C@H](C)[C@@H](C(C)C)O2)OC1=O` [Bafilomycin A1]?
Answer: transfection efficiency ([1]; low doses, added 4 h post transfection): no visibly appreciable effect; AAV infection [2]: blocks AAV infection; reduction in vector titer ([3]; added 4 h post transfection at low doses): 10 fold; vector production ([3]; inhibitor added immediately before transfection, all doses, harvest 48 h): abolished vector production to background levels; vector titer [3, 10]: abolished vector production; VP protein in the absence of AAP [4]: rescue VP protein; also recorded: rescues degradation of some serotype's VP proteins; PEI-mediated transfection of plasmid DNA [5]: blocks PEI-mediated transfection of plasmid DNA

Question: For apoptazole, which “expression of EGFP” value ([1]; 300 uM, 48 h) is on record?
Answer: Its value is “robust expression of EGFP”.

Question: And the “transfection efficiency / EGFP expression” value ([1]; 48 h)?
Answer: The value was “no apparent loss”.

Question: And the “cell death as assayed by ATP abundance” value ([6]; 300 uM)?
Answer: The value was “did not show appreciable cell death”.

Question: What about the vector titer [3, 11] of the same molecule?
Answer: The vector titer was “strong dose dependent decrease”.

Question: And the “vector production (GC per living cell as percentage of DMSO control)” value ([7]; AAV8, lowest level reached, inhibitor 4 h post transfection)?
Answer: Its value is 5%.

Question: For `O=C1NC(=NCc2cccs2)S/C1=C\c1ccc2ncccc2c1` [Cdk1 inhibitor IV], which AAV2 production [8, 12] is on record?
Answer: The AAV2 production was “no effect”.

Question: And the cell viability ([6]; 6.25 μM, added 4 h after transfection)?
Answer: The cell viability was “without affecting cell viability”.

Question: And the vector titer [3, 11]?
Answer: Its vector titer is “did not affect vector titer without concomitant decreases in both cell health and transfection efficiency”.

Question: What about the AAV8 titer [7, 12] of the same molecule?
Answer: Its AAV8 titer is “appreciable decrease”.

Question: With `NS(=O)(=O)c1ccc(N/N=C2\C(=O)Nc3ccc(Br)cc32)cc1` [Cdk2 inhibitor II] as the molecule, how does the AAV2 production [8, 13] read?
Answer: The AAV2 production was “dose-dependent effect”.

Question: And the “gross transfection efficiency (by EGFP visualization)” value ([1]; 90-270 uM, 48 h)?
Answer: The value was “without affecting”.

Question: And the “cell viability (as assayed by ATP)” value ([6]; 90-270 uM)?
Answer: Its value is “without affecting cell viability”.

Question: What about the cell morphology [9] of the same molecule?
Answer: Its cell morphology is “affected”.

Question: What about the AAV8 production [7, 13] of the same molecule?
Answer: Its AAV8 production is “dose-dependent effect”.

Question: And the “decrease in AAV8 titer” value ([7]; higher concentrations, 4 h post transfection)?
Answer: The value was ~10 fold.

Question: With `NS(=O)(=O)OC[C@H]1C[C@@H](Nc2ncncc2C(=O)c2ccn(Cc3cccc(Br)c3)n2)C[C@@H]1O` [ML-792] as the molecule, how does the “transfection efficiency / EGFP expression” value ([1]; 48 h) read?
Answer: The value was “dramatic loss”.

Question: For `O=[N+]([O-])c1ccc(F)c([N+](=O)[O-])c1` [FDNB], which “per cell vector production (GC per living cell)” value ([3]; 4 h post transfection, likely artefact of ATP-based viable cell count) is on record?
Answer: The value was “increase”.

Question: With `Cc1ccc2nc(CN(CCN(Cc3nc4ccc(C)cc4[nH]3)Cc3nc4ccc(C)cc4[nH]3)Cc3nc4ccc(C)cc4[nH]3)[nH]c2c1` [NSC348884] as the molecule, how does the vector titer [3, 11] read?
Answer: The vector titer was “not seen”.

Question: And the vector titer [3, 10]?
Answer: The vector titer was “large effect”.
